Several values for one entry are separate records, joined by “and”; a condition that tells them apart may be missing. Identical values can stand only once.
Experiments:
α-amylase = assay: In-vitro α-amylase inhibition assay; assay type: biochemical; conditions: for Alpha amylase Percent Inhibition (mean ± SEM): semi-purified fractions/isolated compounds series; for Percent Inhibition (mean ± SEM): crude extract/solvent fractions series
Protocol: The Bernfeld’s procedure was used to investigate in-vitro amylase inhibition. […] Ten minutes after incubation period, […] of 1% starch solution were applied to initiate the reaction and then incubated for 30 minutes at 37 °C. Then 20 μl of 1 M HCl and 75 μl of iodine solution were added to the 96 well plate, the absorbance of the solution was measured at 580 nm and inhibitory response of the -amylase enzyme was calculated using the following formula. Inhibition%=100control-test/control
(§1) The IC50s were determined using the same approach in free radical assays such as DPPH, ABTS, and H2O2.

DPPH antioxidant assay = assay type: biochemical; conditions: for DPPH Percent Scavenging / Percent Inhibition (mean ± SEM): semi-purified fractions/isolated compounds series
Protocol: For DPPH stock arrangement, […] dissolve in 100 ml of methanol and maintain at 20 °C for supplementary action. After this, 1000 micro litter was the standard absorbance set at 517 nm as utilized a control and afterward spread through aluminum foil for keeping in dark area for 1 day for the formation of radicals. […] The 2 ml solution of the examples were blended in with 2 ml of 2, 2-[…]-1-picryl-hydrazyl radical arrangement and saved for 15 m in obscurity zone. Following equation was utilized for the assurance of % DPPH restraint. %inhibition=A-B/A×100
A for absorbance of control and B are denoted for the absorbance of sample.
as §1

[1] = system: alloxan-induced diabetic albino mice; assay: In-vivo anti-diabetic study in alloxan-induced diabetic mice; conditions: for Decrease in Blood Glucose: 0 day to 15th day
Protocol: The diabetes was induced in mice by giving alloxan i.p. as per the standard protocols. A single dose of alloxan (150 mg/kg) was given to mice and were kept on fasting for next 16 hours to induce diabetes. […] The animals with random blood glucose level of more than 200 mg/dl were selected for further studies. The animals with elevated blood glucose levels were divided into six groups having five albino mice in each group. Group I was given normal saline and was negative control. Group II was given Tween 80. Group III was the positive control and was given glibenclamide. The remaining groups were given different doses of the compounds. […]

albino mice = assay: Oral glucose tolerance test (OGTT); assay type: in vivo; conditions: for OGTT 0 minutes / OGTT 30 minutes / OGTT 60 minutes / OGTT 120 minutes: oral; for OGTT 0 minutes: 0 minutes after glucose; for OGTT 30 minutes: 30 minutes after glucose; for OGTT 60 minutes: 60 minutes after glucose; for OGTT 120 minutes: 120 minutes after glucose
Protocol: In this experiment, the animals treated with control and treated groups were fasted overnight. To the albino mice, […] of glucose was administered against the standard glibenclamide. After the oral administration of glucose, the level of glucose in blood was checked at time intervals of 0, 30, 60 and 120 minutes for assessment of the effect of exogenously administered glucose-D on the treated albino mice. After the experiment, the OGTT was carried out for 5 days.

α-glucosidase = α-glucosidase (Saccharomyces cerevisiae, UniProt P53341); assay type: biochemical
Chain of α-glucosidase (P53341 whole entry): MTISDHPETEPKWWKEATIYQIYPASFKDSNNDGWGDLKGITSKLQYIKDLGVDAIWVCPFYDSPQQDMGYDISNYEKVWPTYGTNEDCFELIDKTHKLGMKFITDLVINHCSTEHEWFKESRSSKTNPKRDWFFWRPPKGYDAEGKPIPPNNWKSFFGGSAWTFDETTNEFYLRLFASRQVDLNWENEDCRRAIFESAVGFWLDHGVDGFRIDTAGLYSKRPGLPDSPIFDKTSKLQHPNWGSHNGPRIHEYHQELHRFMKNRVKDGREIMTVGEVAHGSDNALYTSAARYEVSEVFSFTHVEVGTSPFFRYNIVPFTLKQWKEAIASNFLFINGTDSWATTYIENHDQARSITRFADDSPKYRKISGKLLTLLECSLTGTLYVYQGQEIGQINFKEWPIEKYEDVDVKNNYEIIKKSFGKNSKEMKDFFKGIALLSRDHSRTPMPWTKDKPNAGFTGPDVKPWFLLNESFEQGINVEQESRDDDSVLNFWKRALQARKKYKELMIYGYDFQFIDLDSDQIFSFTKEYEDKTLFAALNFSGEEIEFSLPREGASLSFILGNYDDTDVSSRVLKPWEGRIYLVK
Protocol: For the example planning initial 1200 μL of phosphate buffer put in test tube and included 100 μl of each concentrate which sequential weakened going from 9, 7, and 5 mg/ml. 200 μl of glycosidase (0.5 mg/11 ml refined H2O) was added to the test tube in addition to 0.2 ml of substrate arrangement (glucopyranoside 15 mg/10 ml refined water) was kept at 37 °C for 20 minutes.
For control, 1.2 ml of PO4 (phosphate buffer) was added to the test tube and furthermore included 200 μl catalyst arrangement and 200 μl of substrate arrangement (C7H14O6 (glucopyranoside) 15 mg/10 ml refined water) just as included 800 μl of Na2CO3 arrangement and was maintained for 20 minutes at 37 °C [32]. The retention of control and test was examined at 4.05e-7 m using the accompanying equation after the recommended time: %Inhibition=absorbanceofControl-absorbanceofSample/absorbanceofControl×100
as §1

[2] = ABTS free radicals scavenging assay; assay type: biochemical
Protocol: The ABTS analysis of plant’s samples was performed by standard systems. […] After amassing of the two solutions, they were saved in a hatchery at 30 °C for 15 m. The absorbance of the subsequent solution was estimated at 745 nm with photo-spectrometer again. Various weakening of ascorbic corrosive was then set up as certain controls as per a similar technique. The ABTS free extreme screening was examined by the accompanying recipe. Formula: %scavengingactivity=A-B/AX100 A used for the control while B represents sample absorbance.

[3] = H2O2 free radicals scavenging assay; assay type: biochemical
Protocol: The hydrogen peroxide antioxidant activity of test samples was evaluated by using protocol described. […] It was […] 0.6 mL hydrogen peroxide solution was applied to it. The absorbance of each plant sample was measured at 230 nm against the blank after 10 minutes. […] Hydrogenperoxidescavengingactivity=1-[…]×100 […]

[4] = dose 31.25 μg/kg, diabetic mice
[5] = dose 0.5 (μg/kg), diabetic mice

SMILES	Alpha amylase Percent Inhibition (mean ± SEM) (α-amylase; 250 μg/ml)	Alpha amylase Percent Inhibition (mean ± SEM) (α-amylase; 500 μg/ml)	Alpha amylase Percent Inhibition (mean ± SEM) (α-amylase; 1000 μg/ml)	DPPH Percent Scavenging / Percent Inhibition (mean ± SEM) (DPPH antioxidant assay; 250 μg/ml)	DPPH Percent Scavenging / Percent Inhibition (mean ± SEM) (DPPH antioxidant assay; 500 μg/ml)	DPPH Percent Scavenging / Percent Inhibition (mean ± SEM) (DPPH antioxidant assay; 1000 μg/ml)	Decrease in Blood Glucose ([1]; dose 31.25 μg/kg)	Blood Glucose Level 0 day [1, 4]	Blood Glucose Level 4th day [1, 4]	Blood Glucose Level 7th day [1, 4]	Blood Glucose Level 10th day [1, 4]	Blood Glucose Level 15th day [1, 4]	Decrease in Blood Glucose ([1]; dose 250 μg/kg)	Blood Glucose Level 0 day ([1]; dose 250 μg/kg, diabetic mice)	Blood Glucose Level 4th day ([1]; dose 250 μg/kg, diabetic mice)	Blood Glucose Level 7th day ([1]; dose 250 μg/kg, diabetic mice)	OGTT 0 minutes (albino mice)	OGTT 30 minutes (albino mice)	OGTT 60 minutes (albino mice)	OGTT 120 minutes (albino mice)	other results
C=CCc1cc2c(c(OC)c1OC)OCO2 [Comp 2, 6-allyl-4,5-dimethoxybenzo[d][1,3]dioxole]	68.33 ± 0.49 %	74.33 ± 1.20 %	81.61 ± 1.70 %	78.36 ± 0.84 %	82.35 ± 0.23 %	87.62 ± 0.58 %	33 mg/dL	451 mg/dL	447 mg/dL	430 mg/dL	424 mg/dL	418 mg/dL	112 mg/dL	467 mg/dL	462 mg/dL	444 mg/dL	163.5 mg/dL	189.4 mg/dL	214.6 mg/dL	151.6 mg/dL	Change in body weight [1, 4]: −6.6 gm; Blood Glucose Level 10th day ([1]; dose 250 μg/kg, diabetic mice): 408 mg/dL; Blood Glucose Level 15th day ([1]; dose 250 μg/kg, diabetic mice): 355 mg/dL; Decrease in Blood Glucose ([1]; dose 500 μg/kg): 201 mg/dL; Blood Glucose Level 0 day ([1]; dose 500 μg/kg, diabetic mice): 457 mg/dL; Blood Glucose Level 4th day ([1]; dose 500 μg/kg, diabetic mice): 403 mg/dL; Blood Glucose Level 7th day ([1]; dose 500 μg/kg, diabetic mice): 362 mg/dL; Blood Glucose Level 10th day ([1]; dose 500 μg/kg, diabetic mice): 304 mg/dL; Blood Glucose Level 15th day ([1]; dose 500 μg/kg, diabetic mice): 256 mg/dL
C[C@H]1O[C@H](O[C@H]2[C@H](O)[C@@H](O)[C@@H](O[C@H]3[C@H](O)[C@@H](O)C(O)O[C@@H]3CO)O[C@@H]2CO)[C@H](O)[C@@H](O)[C@@H]1N[C@H]1C=C(CO)[C@@H](O)[C@H](O)[C@H]1O (stereo partly shown) [Acarbose]	77.08 ± 1.04%	82.28 ± 1.94%	87.49 ± 0.60%																		Alpha glucosidase Percent Inhibition (mean ± SEM) (α-glucosidase): 89.50 ± 1.00% and 83.00 ± 0.00% and 77.50 ± 0.57% and 73.53 ± 0.55% and 67.63 ± 0.33%; Percent Inhibition (mean ± SEM) (α-glucosidase): 75.50 ± 1.00% and 70.00 ± 0.00% and 64.50 ± 0.57% and 56.53 ± 0.55% and 51.63 ± 0.33%; Percent Inhibition (mean ± SEM) (α-amylase; 250 μg/ml): 70.08 ± 1.04%; Percent Inhibition (mean ± SEM) (α-amylase; 500 μg/ml): 76.28 ± 1.94%; Percent Inhibition (mean ± SEM) (α-amylase; 1000 μg/ml): 87.49 ± 0.60%
COc1cc(/C=C/CO)ccc1O [Comp 1, (E)-4-(3-hydroxyprop-1-en-1-yl)-2-methoxyphenol]	74.90 ± 0.60^ns %	79.45 ± 0.90^ns %	85.23 ± 0.22^ns %	80.48 ± 0.25 %	85.43 ± 1.39 %	89.24 ± 0.79 %	36 mg/dL	415 mg/dL	407 mg/dL	398 mg/dL	381 mg/dL	379 mg/dL	205 mg/dL	420 mg/dL	394 mg/dL	345 mg/dL	165.6 mg/dL	194.6 mg/dL	211.4 mg/dL	160.1 mg/dL	Blood Glucose Level 10th day ([1]; dose 250 μg/kg, diabetic mice): 217 mg/dL; Blood Glucose Level 15th day ([1]; dose 250 μg/kg, diabetic mice): 215 mg/dL; Decrease in Blood Glucose ([1]; dose 500 μg/kg): 119 mg/dL; Blood Glucose Level 0 day ([1]; dose 500 μg/kg, diabetic mice): 411 mg/dL; Blood Glucose Level 4th day ([1]; dose 500 μg/kg, diabetic mice): 387 mg/dL; Blood Glucose Level 7th day ([1]; dose 500 μg/kg, diabetic mice): 371 mg/dL; Blood Glucose Level 10th day ([1]; dose 500 μg/kg, diabetic mice): 311 mg/dL; Blood Glucose Level 15th day ([1]; dose 500 μg/kg, diabetic mice): 292 mg/dL; blood glucose (albino mice; after 120 minutes): 160 mg/dL
COc1ccc(Cl)cc1C(=O)NCCc1ccc(S(=O)(=O)NC(=O)NC2CCCCC2)cc1 [Glibenclamide, reference compound]																	151.3 mg/dL	176.5 mg/dL	214.1 mg/dL	140.7 mg/dL	Decrease in Blood Glucose ([1]; dose 0.5 (μg/kg)): 274 mg/dL; Blood Glucose Level 0 day [1, 5]: 472 mg/dL; Blood Glucose Level 4th day [1, 5]: 302 mg/dL; Blood Glucose Level 7th day [1, 5]: 256 mg/dL; Blood Glucose Level 10th day [1, 5]: 211 mg/dL; Blood Glucose Level 15th day [1, 5]: 198 mg/dL
O=C1O[C@H]([C@@H](O)CO)C(O)=C1O [Ascorbic acid]				83.33 ± 0.88%	87.84 ± 0.26%	92.55 ± 0.35%															DPPH assay Percent Inhibition (mean ± SEM) (DPPH antioxidant assay; 250 μg/ml, crude extract/solvent fractions series): 81.33 ± 0.88%; DPPH assay Percent Inhibition (mean ± SEM) (DPPH antioxidant assay; 500 μg/ml, crude extract/solvent fractions series): 87.84 ± 0.26%; DPPH assay Percent Inhibition (mean ± SEM) (DPPH antioxidant assay; 1000 μg/ml, crude extract/solvent fractions series): 92.55 ± 0.35%; DPPH assay IC50 (DPPH antioxidant assay; crude extract/solvent fractions series): < 0.1 µg/mL; ABTS assay IC50 [2]: < 0.1 µg/mL; ABTS assay Percent Inhibition (mean ± SEM) ([2]; 250 μg/ml): 81.00 ± 1.06%; ABTS assay Percent Inhibition (mean ± SEM) ([2]; 500 μg/ml): 86.66 ± 0.66%; ABTS assay Percent Inhibition (mean ± SEM) ([2]; 1000 μg/ml): 87.83 ± 0.29%; H2O2 assay IC50 [3]: 12.63 µg/mL; H2O2 assay Percent Inhibition (mean ± SEM) ([3]; 250 μg/ml): 71.56 ± 0.49%; H2O2 assay Percent Inhibition (mean ± SEM) ([3]; 500 μg/ml): 74.03 ± 0.64%; H2O2 assay Percent Inhibition (mean ± SEM) ([3]; 1000 μg/ml): 82.43 ± 0.52%

Source: paper PMC9190144, “Phytochemistry, anti-diabetic and antioxidant potentials of Allium consanguineum Kunth” (BMC Complementary Medicine and Therapies, 2022)
